Among the data in ChEMBL document CHEMBL4024741, “A minimalistic tetrapeptide amphiphile scaffold for transmembrane pores with a preference for sodium” (Bioorg Med Chem Lett, 2017) are Activity, K and EC50 values, retold here.

Data set [1] is described as follows: Binding affinity to potassium ion in 1,2-diphytanoyl-sn-glycero-3-phosphocholine based bilayer membrane assessed as reversal of membrane potential at 0.1 mg/ml in presence of KCl loaded cis membrane.
A short description of data set [2]: Binding affinity to potassium ion in 1,2-diphytanoyl-sn-glycero-3-phosphocholine based bilayer membrane assessed as increase in membrane current at 0.1 mg/ml in presence of KCl loaded cis membrane.
Data set [3] can be described thus: Binding affinity to sodium ion in HPTS dye encapsulated EPYC/cholesterol vesicles assessed as increase in internal pH at 20 uM after 2 mins in presence of NaOH loaded external vesicles by fluorescence spectroscopic analysis.
Data set [4] in a line: Effect on membrane integrity in EYPC/cholesterol vesicles at 40 uM by dynamic light scattering method. The data set is classed as ADME.
A short description of data set [5]: Binding affinity to sodium ion in HPTS dye encapsulated EPYC/cholesterol vesicles assessed as increase in internal pH at 5 mol% of lipid after 2 mins in presence of NaOH loaded external vesicles by fluorescence spectroscopic analysis (reference value: 5.6 +/- 1.2 10^-3/s).
The nature of data set [6]: Binding affinity to potassium ion in HPTS dye encapsulated EPYC/cholesterol vesicles assessed as increase in internal pH at 5 mol% of lipid after 2 mins in presence of KOH loaded external vesicles by fluorescence spectroscopic analysis (reference value: 5.6 +/- 1.2 10^-3/s).
A short description of data set [7]: Binding affinity to lithium ion in HPTS dye encapsulated EPYC/cholesterol vesicles assessed as increase in internal pH at 5 mol% of lipid after 2 mins in presence of LiOH loaded external vesicles by fluorescence spectroscopic analysis (reference value: 5.6 +/- 1.2 10^-3/s).
A short description of data set [8]: Binding affinity to sodium ion in lucigenin/NaCl encapsulated EPYC/cholesterol vesicle at 10 mol% of lipid by fluorescence spectroscopic method.
A short description of data set [9]: Binding affinity to sodium ion in lucigenin/NaCl encapsulated EPYC/cholesterol vesicle by fluorescence spectroscopic method.

Calls of active or inactive are those of the source. The calls are words filed in the database; no cut-off is given here.

As to `CCCCCCCCCCCCCC(=O)N[C@@H](C)C(=O)Nc1cccc(C(=O)N[C@@H](C)C(=O)N[C@H](C)C(=O)OCCOCCOCC)n1`, the Activity in [1] was -14.9 mV; in data set [2] it was 40 pA; in [4], “Non-Toxic”. In data set [3], the result was Active.
Consider `CCCCCCCCCCCCCC(=O)N[C@@H](C)C(=O)N[C@H](C)C(=O)N[C@@H](C)C(=O)Nc1cccc(C(=O)OCCOCCOCC)n1`, for which the Activity is -10.8 mV in data set [1], 30 pA in [2] and “Non-Toxic” in data set [4]. The K in [5] stood at 28.9 ×10⁻³ /s; in data set [6], 15.8 ×10⁻³ /s; in [7], 17.5 ×10⁻³ /s; in [8], 9.7 ×10⁻³ /s. In data set [9], this molecule had an EC50 of 0.94 mol%.
Turning to `CCCCCCCCCCCCCC(=O)N[C@@H](C)C(=O)N[C@H](C)C(=O)N[C@@H](C)C(=O)Nc1cccc(C(=O)OC)n1`, the K in data set [5] is 12.4 ×10⁻³ /s; in data set [6], 15.3 ×10⁻³ /s; in data set [7] it was 14.3 ×10⁻³ /s. The Activity entry in [4] is reported as “Non-Toxic”.
